Assay results reported in patent publication US8680054B2, “Suspension type topical formulations comprising cyclic depsipeptide” (Novartis AG, priority 2011, dated 2014).

Key:
[1] = Stability of the compound of formula (II) in hydrophilic environment; format: physicochemical
[2] = Solubility of the compound of formula (II); format: physicochemical

CC[C@H](C)[C@@H]1NC(=O)[C@H](Cc2ccc(O)cc2)N(C)C(=O)[C@H]([C@@H](C)CC)N2C(=O)[C@H](CC[C@H]2O)NC(=O)[C@H](CC(C)C)NC(=O)[C@@H](NC(=O)[C@H](CCC(N)=O)NC(=O)C(C)C)[C@@H](C)OC1=O [compound of formula (II)]
stability in the presence of water ([1]; presence of water): subject to hydrolysis | stability in a hydrophilic environment ([1]; water and polar organic solvents/co-solvents): tendency to degradeation | solubility in lipophilic excipients ([2]; lipophilic excipients): low solubility | solubility in polar organic solvents ([2]; polar organic solvents): good solubility | solubility in water and aqueous buffers ([2]; water and aqueous buffers): moderate solubility
